Reference: US11639493B2, “Consortium of bacteria that mineralises lipids, starches and sugars (carbohydrates) and are resistant to lethal doses of thiodicarb (carbamate) and bifenthrin (pyrethroid) for inoculation into organic matter of different origins” (priority 2018, dated 2023)

Assays:
Type in all cases: cell-based
Bacillus subtillis = experiment: Adaptation stages: mortality of Bacillus subtillis on growth media with thiodicarb or bifenthrin; conditions: for Resistant to: FINAL: Bacillus subtillis at the end of the adaptation process
Arthrobacter globiformis = experiment: Adaptation stages: mortality of Arthrobacter globiformis on growth media with thiodicarb or bifenthrin; conditions: for initial mortality: summary of the adaptation tests with increasing concentrations of thiodicarb and bifenthrin
Protocol: (§1) Bacteria strains, nitrifiers, phosphorus solubilizers and antagonists for pathogens: • a) Arthrobacter globiformis • b) Bacillus megaterium • c) Bacillus brevis • d) Bacillus thuringiensis Preparation for Stage Development • 1. Glass material is sterilized in an autoclave. • 2. The required amount of growth media is prepared, DFA Agar, Malt Agar (Corn Agar) and (PDA) to obtain viable colonies. • 3. Lethal dose (LD) applied to a hectare is established, for thiodicarb as well as bifenthrin. 10 Petri dishes are prepared with 0.1 LD of thiodicarb of bifenthrin. Dishes are incubated at 25° C. for 72 hours with cold light. Methodology • a. Physical and chemical variables obtained in the research are maintained using traces. Petri dishes are placed inside the laminar flow chamber along with the diluted samples, to seed microorganisms in the dishes, a one ml sample of the strain is taken with an automated pipette, 10^−1 and 10^−2 solutions are performed and each solution is homogenized. • b. Having the petri dishes with the sterile and cold growth media, it is homogenized with 6 right to left movements, 6 clockwise movements, 6 counterclockwise movements and 6 front to back movements over a flat horizontal surface until the inoculum is completely integrated into the media, stand until it solidifies and each dish is covered with parafilm to avoid contamination during incubation. • c. The adapted consortium conditions are kept for the starting media (habitat), humidity, pH, temperature, chemical traceability, lighting and airing, Gram colorations and malachite green for the differentiation and observation of cellular structures. • d. Dishes with thiodicarb and Bifenthrin are placed inside the incubator at 25° C. for 72 hours with a cold light lamp. • e. Inoculated dishes are incubated for 72 hours and the bacteria growth will be recorded, the product concentration impact is determined over the plate growth (12 hours of incubation). • f. The residual impact of the product is reviewed after 7 days in the malt agar and PDA agar media. • g. If there is no growth over 10%, the process is repeated until a mortality under 90% is obtained. • h. The colony diameter is determined using a graduated ruler, data is recorded subtracting the diameter of the seeded dish, from which the effect over the mycelial growth will be determined compared to the control (not poisoned MA, denominated as percentage of inhibition of radial growth (PIRG %). • i. Progress is recorded daily and after 7 days analysis of an acceptable coverage is performed, if not, the procedure is repeated as many times as required. • j. From the 10 Petri dishes for each microorganism, the one with the lowest mortality is the one that will continue with the following study. • k. The study is performed again using this percentage until coverage increases and so on, the addition of thiodicarb and bifenthrin is alternated with the LD in intervals of 0.1 LD; all these experiments have been designed with the experimental strains and a control. • l. With the data obtained from the bacterial growth, the percentage of inhibition of gradual growth is obtained, the data is transformed for its analysis with the expression 2 arc sin. A two-way classification analysis of variance is applied and later the Turkey test is performed using a 5% probability.
(§2) Characteristics for this procedure were recorded during all stages through the following indicators: • a. Growth speed • b. Percentage of inhibition measured in Number of CFU/mm • c. Percentage of poison resistance
Habitat conditions are maintained, conditions obtained during the adaptation to organophosphorus and organochlorinated compounds and mercury of the microorganism, pH: 7.0, humidity: 35%, Temperature: Thermoresistant. These conditions are the starting point to adapt the strain to the new pollutants: thiodicarb (carbamate) and bifenthrin (pyrethroid). […]

Bacillus brevis = experiment: Adaptation stages: mortality of Bacillus brevis on growth media with thiodicarb or bifenthrin; conditions: for Resistant to: FINAL: Bacillus brevis at the end of the adaptation process
Protocol: as §1, §2
(§3) Beginning with habitat conditions obtained in the adaptation to organophosphate, organochlorine compounds and mercury from the microorganisms at the E-38 pH: 7.2, Humidity: 36%, thermoresistant and facultative anaerobic. These conditions are the starting point to adapt the strain to thiodicarb and bifenthrin.
To adapt this microorganism, 51 stages were performed, beginning the process with the conventional growth media. […]

Bacillus thuringiensis = experiment: Adaptation stages: mortality of Bacillus thuringiensis on growth media with thiodicarb or bifenthrin; conditions: for Resistant to: FINAL: B. Thuringiensis at the end of the adaptation process
Protocol: as §1, §2
as §3, with “52%,” for “36%,”, “thermoresistant (74° C.), […]” for “thermoresistant”, “bifenthrin. During all stages a cold light lamp will be used to adapt the microorganism to sunlight. […]” for “bifenthrin.”

[1] = stage E-1, 0.1 LD (0.0000175 gr), until day 68 of incubation
[2] = stage E-2, 0.1 LD (0.0000175 gr)
[3] = stages E-3 and E-4, 0.2 LD (0.000035 gr)
[4] = stages E-9 and E-10, 0.3 LD (0.000053 gr)
[5] = stages E-11 and E-12, 0.4 LD (0.000070 gr)
[6] = stages E-15 and E-16, 0.4 LD (0.00000024 gr)
[7] = stages E-17 and E-18, 0.5 LD (0.000087 gr)
[8] = stages E-19 and E-20, 0.6 LD (0.00011 gr)
[9] = stages E-23 and E-24, 0.6 LD (0.00000036 gr)
[10] = stages E-25 and E-26, 0.7 LD (0.00012 gr)
[11] = stages E-27 and E-28, 0.8 LD (0.00014 gr)
[12] = stages E-31 and E-32, 0.8 LD (0.00000042 gr)
[13] = stages E-33 and E-34, 0.9 LD (0.00016 gr)
[14] = stages E-35 and E-36, 1 LD (0.00018 gr)
[15] = stages E-39 and E-40, 1 LD (0.00000048 gr)
[16] = stages E-41 and E-42, 1.1 LD (0.00020 gr)
[17] = stages E-43 and E-44, 1.2 LD (0.00022 gr), both stages
[18] = stages E-47 and E-48, 1.2 LD (0.00000060 gr)
[19] = stages E-5 and E-6, 0.1 LD (0.00000006 gr)
[20] = stages E-7 and E-8, 0.2 LD (0.00000012 gr)
[21] = stages E-13 and E-14, 0.3 LD (0.00000018 gr)
[22] = stages E-21 and E-22, 0.5 LD (0.00000030 gr)
[23] = stages E-29 and E-30, 0.7 LD (0.00000036 gr)
[24] = stages E-37 and E-38, 0.9 LD (0.00000042 gr)
[25] = stages E-45 and E-46, 1.1 LD (0.00000054 gr)

For CS/C(C)=N\OC(=O)N(C)SN(C)C(=O)O/N=C(\C)SC [thiodicarb], the “Resistant to: FINAL” value (Bacillus subtillis) was 1 LD of, the mortality (Bacillus subtillis; [1]) was 82% and the mortality (Bacillus subtillis; [2]) was 80%. For the same molecule, the mortality (Bacillus subtillis; [3]) was 75 to 72%, the mortality (Bacillus subtillis; [4]) was 66 to 63% and the mortality (Bacillus subtillis; [5]) was 64 to 62%. For the same molecule, the mortality (Bacillus subtillis; [6]) was 64 to 60%, the mortality (Bacillus subtillis; [7]) was 59 to 54% and the mortality (Bacillus subtillis; [8]) was 52 to 50%. For the same molecule, the mortality (Bacillus subtillis; [9]) was 40 to 35%, the mortality (Bacillus subtillis; [10]) was 35 to 30% and the mortality (Bacillus subtillis; [11]) was 28 to 25%. For the same molecule, the mortality (Bacillus subtillis; [12]) was 20 to 18%, the mortality (Bacillus subtillis; [13]) was 18 to 15% and the mortality (Bacillus subtillis; [14]) was 12 to 9%. It also gave a mortality (Bacillus subtillis; [15]) of 5%, a mortality (Arthrobacter globiformis; stages E-1 and E-2, 0.1 LD (0.0000175 gr) in growth media, until incubation day 45) of 86% and a mortality (Arthrobacter globiformis; [3]) of 66 to 80%. It also gave a mortality (Arthrobacter globiformis; [4]) of 74%, a mortality (Arthrobacter globiformis; [5]) of 71% and a mortality (Arthrobacter globiformis; [6]) of 62%. For the same molecule, the mortality (Arthrobacter globiformis; [7]) was 63%, the mortality (Arthrobacter globiformis; [8]) was 58% and the mortality (Arthrobacter globiformis; [9]) was 48%. For the same molecule, the mortality (Arthrobacter globiformis; [10]) was 48%, the mortality (Arthrobacter globiformis; [11]) was 40% and the mortality (Arthrobacter globiformis; [12]) was 36%. It also gave a mortality (Arthrobacter globiformis; [13]) of 32%, a mortality (Arthrobacter globiformis; [14]) of 25% and a mortality (Arthrobacter globiformis; [15]) of 18%. For the same molecule, the initial mortality (Arthrobacter globiformis) was ~82%, the “Resistant to: FINAL” value (Bacillus brevis) was 1.3 LD of and the mortality (Bacillus brevis; [1]) was 82%. The mortality (Bacillus brevis; [2]) was 78%, the mortality (Bacillus brevis; [3]) was 72% and the mortality (Bacillus brevis; [4]) was 68%. The mortality (Bacillus brevis; [5]) was 67%, the mortality (Bacillus brevis; [6]) was 60% and the mortality (Bacillus brevis; [7]) was 59 to 54%. For the same molecule, the mortality (Bacillus brevis; [8]) was 55%, the mortality (Bacillus brevis; [9]) was 51% and the mortality (Bacillus brevis; [10]) was 50%. The mortality (Bacillus brevis; [11]) was 46%, the mortality (Bacillus brevis; [12]) was 42% and the mortality (Bacillus brevis; [13]) was 38%. The mortality (Bacillus brevis; [14]) was 28%, the mortality (Bacillus brevis; [15]) was 20% and the mortality (Bacillus brevis; [16]) was 28%. It also gave a mortality (Bacillus brevis; [17]) of 22%, a mortality (Bacillus brevis; [18]) of 12% and a mortality (Bacillus brevis; stages E-49 and E-50, 1.3 LD (0.00024 gr)) of 10%. The “Resistant to: FINAL” value (Bacillus thuringiensis) was 1.2 LD of, the mortality (Bacillus thuringiensis; stages E-1 and E-2, 0.1 LD (0.0000175 gr), until day 45 of incubation) was 72 to 70% and the mortality (Bacillus thuringiensis; [3]) was 70 to 68%. For the same molecule, the mortality (Bacillus thuringiensis; [4]) was 65 to 61%, the mortality (Bacillus thuringiensis; [5]) was 57 to 55% and the mortality (Bacillus thuringiensis; [6]) was 52 to 50%. The mortality (Bacillus thuringiensis; [7]) was 52 to 50%, the mortality (Bacillus thuringiensis; [8]) was 50 to 45% and the mortality (Bacillus thuringiensis; [9]) was 44 to 42%. For the same molecule, the mortality (Bacillus thuringiensis; [10]) was 44 to 40%, the mortality (Bacillus thuringiensis; [11]) was 36 to 35% and the mortality (Bacillus thuringiensis; [12]) was 30 to 28%. The mortality (Bacillus thuringiensis; [13]) was 30%, the mortality (Bacillus thuringiensis; [14]) was 25% and the mortality (Bacillus thuringiensis; [15]) was 18 to 17%. For the same molecule, the mortality (Bacillus thuringiensis; [16]) was 18 to 17%, the mortality (Bacillus thuringiensis; [17]) was 14% and the mortality (Bacillus thuringiensis; [18]) was 10 to 7%.

With Cc1c(COC(=O)[C@@H]2[C@H](/C=C(\Cl)C(F)(F)F)C2(C)C)cccc1-c1ccccc1 (racemic) [bifenthrin, 2-methyl biphenyl-3-ilmetil(2)-(1RS,3RS)-3-(2-chlorine 3,3,3-trifluoropropene)-2,2-dimethyl-cyclo-propane-carboxylate] the “Resistant to: FINAL” value (Bacillus subtillis) was 1 LD of, the mortality (Bacillus subtillis; [19]) was 72 to 71% and the mortality (Bacillus subtillis; [20]) was 70 to 68%. For the same molecule, the mortality (Bacillus subtillis; [21]) was 65%, the mortality (Bacillus subtillis; [22]) was 47 to 45% and the mortality (Bacillus subtillis; [23]) was 25 to 23%. For the same molecule, the mortality (Bacillus subtillis; [24]) was 8 to 6%, the mortality (Arthrobacter globiformis; [19]) was 84% and the mortality (Arthrobacter globiformis; [20]) was 75%. It also gave a mortality (Arthrobacter globiformis; [21]) of 70%, a mortality (Arthrobacter globiformis; [22]) of 56% and a mortality (Arthrobacter globiformis; [23]) of 40%. The mortality (Arthrobacter globiformis; [24]) was 25%, the initial mortality (Arthrobacter globiformis) was ~82% and the “Resistant to: FINAL” value (Bacillus brevis) was 1.3 LD of. The mortality (Bacillus brevis; [19]) was 73%, the mortality (Bacillus brevis; [20]) was 70 to 68% and the mortality (Bacillus brevis; [21]) was 67%. For the same molecule, the mortality (Bacillus brevis; [22]) was 55%, the mortality (Bacillus brevis; [23]) was 44% and the mortality (Bacillus brevis; [24]) was 26%. For the same molecule, the mortality (Bacillus brevis; [25]) was 20%, the “Resistant to: FINAL” value (Bacillus thuringiensis) was 1.2 LD of and the mortality (Bacillus thuringiensis; [19]) was 68 to 65%. It also gave a mortality (Bacillus thuringiensis; [20]) of 64 to 63%, a mortality (Bacillus thuringiensis; [21]) of 57 to 55% and a mortality (Bacillus thuringiensis; [22]) of 50 to 45%. The mortality (Bacillus thuringiensis; [23]) was 36 to 33%, the mortality (Bacillus thuringiensis; [24]) was 30 to 28% and the mortality (Bacillus thuringiensis; [25]) was 15 to 12%.
